# How the values were obtained:
# [1] = molecular target: T1, DGKα (hDGKalpha(1-735)-N-His) (Homo sapiens, UniProt P23743); test: In vitro DGK inhibition assay, DGKalpha ADP Glo (in house); type: biochemical; conditions: 4 nM DGKα, 25 μM ATP, 125 uM DLG in liposomes, 1 hour reaction
# T1 construct: hDGKalpha(1-735)-N-His; His (N); made in house; host or cells: Sf21 insect cells (baculovirus)
# Summary of the method: (§1)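 Full-length His-tagged human DGKα (4 nM) or DGKζ (2 nM), expressed in Sf21 cells, phosphorylated 125 µM DLG in PS/PC liposomes with ATP at 25 µM (α) or 50 µM (ζ) for 1 h. ADP was measured by ADP-Glo luminescence. Compounds were tested as 11-point 1:3 series in 2% DMSO.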
# [2] = test system: primary human T-cells; test: IL2 secretion measurements (24 h, CD3-stimulated T-cells, PBS counter screen); type: cell-based
# Summary of the method: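 Expanded primary human T-cells (100k/well) were plated on anti-CD3-coated or PBS-only plates with compound in a 5–6 point dose response (top 20 or 10 μM final, 3.333-fold, 0.2% DMSO). IL-2 in 24 h supernatants was quantified by ProQuantum immunoassay or ELISA. Values were normalized to DMSO and 20 μM reference compound A1 (100%), giving EC50 and Emax.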
# [3] = molecular target: T2, DGKζ (hDGKzeta(1-928)-N-His) (Homo sapiens, UniProt Q13574); test: In vitro DGK inhibition assay, DGKzeta ADP Glo (in house); type: biochemical; conditions: 2 nM DGKζ, 50 μM ATP, 125 uM DLG in liposomes, 1 hour reaction
# T2 construct: hDGKzeta(1-928)-N-His; His (N); made in house; host or cells: Sf21 insect cells (baculovirus)
# Summary of the method: as §1
# T1 sequence (P23743 whole entry): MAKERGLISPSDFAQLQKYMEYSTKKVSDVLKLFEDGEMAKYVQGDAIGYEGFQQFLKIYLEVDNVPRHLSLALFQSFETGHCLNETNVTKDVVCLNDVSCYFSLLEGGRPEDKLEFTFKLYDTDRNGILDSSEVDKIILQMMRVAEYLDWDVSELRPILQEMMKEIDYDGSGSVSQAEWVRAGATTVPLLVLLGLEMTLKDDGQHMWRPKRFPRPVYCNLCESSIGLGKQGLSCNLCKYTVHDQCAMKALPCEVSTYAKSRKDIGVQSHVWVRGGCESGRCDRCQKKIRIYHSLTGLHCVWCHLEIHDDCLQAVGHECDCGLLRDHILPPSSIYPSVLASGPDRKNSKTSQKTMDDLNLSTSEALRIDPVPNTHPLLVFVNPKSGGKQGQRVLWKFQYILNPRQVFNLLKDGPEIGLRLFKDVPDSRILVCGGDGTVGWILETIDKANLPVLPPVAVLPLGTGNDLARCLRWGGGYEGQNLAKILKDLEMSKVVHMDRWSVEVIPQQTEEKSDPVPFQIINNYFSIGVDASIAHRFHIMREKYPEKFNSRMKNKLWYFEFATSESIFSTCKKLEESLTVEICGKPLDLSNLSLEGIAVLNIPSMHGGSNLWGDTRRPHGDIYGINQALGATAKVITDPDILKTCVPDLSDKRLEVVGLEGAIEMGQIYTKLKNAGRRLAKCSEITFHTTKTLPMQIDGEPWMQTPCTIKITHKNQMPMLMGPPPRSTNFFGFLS
# T2 sequence (Q13574 whole entry): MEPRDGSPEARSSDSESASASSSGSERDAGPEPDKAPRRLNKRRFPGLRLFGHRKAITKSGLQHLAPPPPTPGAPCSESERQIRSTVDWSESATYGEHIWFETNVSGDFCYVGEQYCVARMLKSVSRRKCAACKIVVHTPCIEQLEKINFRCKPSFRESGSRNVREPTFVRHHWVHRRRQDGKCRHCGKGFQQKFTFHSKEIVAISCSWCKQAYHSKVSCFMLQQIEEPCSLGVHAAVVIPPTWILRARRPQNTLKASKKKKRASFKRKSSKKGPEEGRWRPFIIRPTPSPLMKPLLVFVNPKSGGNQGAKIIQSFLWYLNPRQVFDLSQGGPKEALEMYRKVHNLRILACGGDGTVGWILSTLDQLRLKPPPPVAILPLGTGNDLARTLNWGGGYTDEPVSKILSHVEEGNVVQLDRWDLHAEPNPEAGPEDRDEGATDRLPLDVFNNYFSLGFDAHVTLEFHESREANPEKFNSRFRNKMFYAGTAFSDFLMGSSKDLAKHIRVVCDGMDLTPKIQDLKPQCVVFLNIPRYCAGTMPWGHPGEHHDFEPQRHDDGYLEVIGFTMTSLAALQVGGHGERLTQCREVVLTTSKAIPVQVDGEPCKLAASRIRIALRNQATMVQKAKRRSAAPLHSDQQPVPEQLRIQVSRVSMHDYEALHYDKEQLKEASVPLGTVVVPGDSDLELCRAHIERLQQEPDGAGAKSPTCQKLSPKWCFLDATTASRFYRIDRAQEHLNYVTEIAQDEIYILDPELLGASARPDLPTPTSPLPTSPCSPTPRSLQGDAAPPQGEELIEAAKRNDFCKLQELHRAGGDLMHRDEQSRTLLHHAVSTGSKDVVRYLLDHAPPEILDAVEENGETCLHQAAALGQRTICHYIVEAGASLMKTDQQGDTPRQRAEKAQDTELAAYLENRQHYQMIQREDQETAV
compound,measurement,setting,value
"CCN1CC(c2nnc(-c3ccc4c(c3)N(Cc3ccc(-c5noc(C(C)(C)C)n5)cc3)C(=O)[C@@H](N)CS4(=O)=O)o2)CC(F)(F)C1 (stereo partly drawn) [Example 181, (3R)-3-amino-5-[[4-(5-tert-butyl-1,2,4-oxadiazol-3-yl)phenyl]methyl]-7-[5-(1-ethyl-5,5-difluoro-3-piperidyl)-1,3,4-oxadiazol-2-yl]-1,1-dioxo-2,3-dihydro-1λ^6,5-benzothiazepin-4-one]",IC50,[1],> 62.5 µM
same,Emax IL2 (% activation),"[2]; CD3 condition, normalised to DMSO (neutral) and 20 μM reference compound A1 = 100%",66 % activation
same,EC50,"[2]; Homo sapiens, T-cell, CD3-stimulated primary human T-cells, IL2 secretion, fitted sigmoidal curve, read-out: Tcell IL2 CD3 EC50",6.89 µM
same,IC50,[3],0.2 µM

# From US20260138976A1 (Hoffmann-La Roche Inc., priority 2022, published 2026)
